In series [1] the target is T1, Oxysterols receptor LXR-beta (Homo sapiens, UniProt P55055).
T1 sequence (P55055 whole entry): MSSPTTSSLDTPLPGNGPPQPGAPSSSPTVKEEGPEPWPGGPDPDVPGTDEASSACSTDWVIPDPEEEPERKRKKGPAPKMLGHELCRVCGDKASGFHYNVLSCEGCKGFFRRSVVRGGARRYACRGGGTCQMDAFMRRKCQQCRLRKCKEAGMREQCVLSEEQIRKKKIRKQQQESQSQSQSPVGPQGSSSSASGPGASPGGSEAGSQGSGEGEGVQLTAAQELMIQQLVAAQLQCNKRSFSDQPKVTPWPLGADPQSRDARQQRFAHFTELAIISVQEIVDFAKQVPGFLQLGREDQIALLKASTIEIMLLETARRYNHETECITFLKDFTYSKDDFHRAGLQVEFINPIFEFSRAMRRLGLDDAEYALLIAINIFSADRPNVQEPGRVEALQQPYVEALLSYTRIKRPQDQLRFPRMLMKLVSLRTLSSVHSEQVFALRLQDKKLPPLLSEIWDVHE

In series [2] the target is T1, Oxysterols receptor LXR-beta. Kind of series: Agonist activity at human recombinant LXRbeta ligand binding domain in human HuH7 cells co-transfected with fused Gal4-DBD by transactivation assay. In kind it is cell-based, Huh-7.
The target in series [3] is T2, Oxysterols receptor LXR-alpha (Homo sapiens, UniProt Q13133).
Series [4] relates to THP-1. Kind of series: Effect on ABCA1 gene expression in human differentiated THP1 cells relative to TO901317. The series is classed as functional.
Series [5] concerns THP-1. Kind of series: Stimulation of [3H]cholesterol efflux in human THP1 foam cells loaded with ac-LDL. The series is classed as functional, cell-based.
Series [6] deals with THP-1. Kind of series: Stimulation of [3H]cholesterol efflux in human THP1 foam cells loaded with ac-LDL relative to TO901317. In kind it is functional.
The test system of series [7] is HepG2. As to the kind of experiment: Effect on SREBP1c gene expression in human HepG2 cells. The series is classed as functional, cell-based.
The test system of series [8] is HepG2. As to the kind of experiment: Effect on SREBP1c gene expression in human HepG2 cells relative to TO901317. The series is classed as functional.
In series [9] the test system is HepG2. As to the kind of experiment: Effect on triglyceride accumulation in human HepG2 cells relative to TO901317. The series is classed as functional.
The test system of series [10] is THP-1. Kind of series: Effect on ABCA1 gene expression in human differentiated THP1 cells. In kind it is functional, cell-based.
For series [11], the system named is HepG2. As to the kind of experiment: Effect on triglyceride accumulation in human HepG2 cells. The series is classed as functional, cell-based.
Series [12] relates to Mus musculus. Kind of series: Decrease in total cholesterol level in LDL receptor knockout C57BL/6 mouse plasma at 10 mg/kg administered with Western diet after 8 weeks. The series is classed as functional. Also on record: scale not given: the % may be the effect or the level left.
The subject of series [13] is Mus musculus. Kind of series: Reduction in atherosclerotic lesion size in LDL receptor knockout C57BL/6 mouse thoracic aorta at 10 mg/kg administered with Western diet after 8 weeks by oil Red-O staining. The series is classed as functional. Also on record: scale not given: the % may be the effect or the level left.
For series [14], the system named is Mus musculus. Kind of series: Upregulation of ABCA1 gene expression in LDL receptor knockout C57BL/6 mouse duodenum at 10 mg/kg administered with Western diet. In kind it is functional. The note with it: route oral.
The subject of series [15] is Mus musculus. Kind of series: Increase in CYP7A1 gene expression in LDL receptor knockout C57BL/6 mouse liver at 10 mg/kg administered with Western diet. The series is classed as functional.
The target of series [16] is T2, Oxysterols receptor LXR-alpha. The source holds these as a separate data set.
Series [17] is described as follows: Half life in C57 mouse at 1 mg/kg, iv. The series is classed as ADME, organism-based. The note with it: in vivo. The arrangement: dose 1 mg/kg, route intravenous.
Series [18] is described as follows: Clearance in C57 mouse at 1 mg/kg, iv and 10 mg/kg, po. The series is classed as ADME, organism-based. The note with it: in vivo.
Series [19] in a line: Volume of distribution at steady state in C57 mouse at 1 mg/kg, iv and 10 mg/kg, po. The series is classed as ADME, organism-based. The conditions noted are these: in vivo, read-out: Vdss.
A short description of series [20]: Terminal half life in C57 mouse at 10 mg/kg, po. In kind it is ADME, organism-based. Also on record: dose 10 mg/kg, route oral. The note with it: in vivo, read-out: beta t1/2 (converted).
Series [21] can be described thus: Tmax in C57 mouse at 1 mg/kg, iv and 10 mg/kg, po. The conditions noted are these: in vivo. In kind it is ADME, organism-based.
Series [22] is described as follows: AUC (0 to infinity) in C57 mouse at 1 mg/kg, iv and 10 mg/kg, po. In kind it is ADME, organism-based. The conditions noted are these: plasma.
A short description of series [23]: Cmax in male C57 mice after 10 mg/kg oral dose. The arrangement: dose 10 mg/kg, route oral. The note with it: C57, mouse, in vivo. The series is classed as ADME, organism-based.
Series [24] in a line: Bioavailability in C57 mouse at 1 mg/kg, iv and 10 mg/kg, po. In kind it is ADME, organism-based. The conditions noted are these: in vivo.
For series [25], the system named is Syrian golden hamster. As to the kind of experiment: Effect on triglyceride level in golden Syrian hamster plasma at 3 mg/kg administered with chow diet for 7 days measured after 2 hrs of final dose. In kind it is functional, Mesocricetus auratus.
Series [26] concerns Syrian golden hamster. Kind of series: Induction of FAS gene expression in golden Syrian hamster liver at 3 mg/kg administered with chow diet for 7 days measured after 2 hrs of final dose by real time PCR. In kind it is functional, Mesocricetus auratus. For orientation: Real-time PCR tracks product formation cycle by cycle.

A word on the IC50: it is the concentration that inhibits the measured activity by half. Usually EC50 stands for the midpoint of the concentration-response curve. The term Tmax denotes the time from dosing to the highest level. In general, AUC(0-inf) refers to the area under the concentration-time curve extrapolated to infinity. What is called Cmax is the maximum level reached in the sampled fluid or tissue. By bioavailability is commonly meant dose-corrected exposure relative to a reference, in per cent.

`O=C(O)Cc1ccc(CNc2cccc(-c3c(Cc4ccccc4)cnc4c(C(F)(F)F)cccc34)c2)cc1`: the half-maximal inhibitory concentration (IC50) was 2 nM in series [1] and 8 nM in [3]. The EC50 in [2] stood at 90 nM.

For the compound `O=S(=O)(c1ccccc1)N(CC(F)(F)F)c1ccc(C(O)(C(F)(F)F)C(F)(F)F)cc1` [T091317], the Efficacy with THP-1 [4], with THP-1 [6], with HepG2 [8] and in the series with HepG2 [9] was 100% each time. In addition, the EC50 with THP-1 [5] came out at 3 nM; in the series on HepG2 [7], 61 nM.

As to `O=C(O)Cc1cccc(OCCCN(Cc2cccc(C(F)(F)F)c2Cl)CC(c2ccccc2)c2ccccc2)c1`, the EC50 in [2] was 310 nM; in the series on THP-1 [10] it was 434 nM; with THP-1 [5], 31 nM; with HepG2 [7], 210 nM; in the series on HepG2 [11], 2000 nM; in series [16] it was 660 nM. The Efficacy is on record as 178% with THP-1 [4], 84% with THP-1 [6], 137% in the series on HepG2 [8] and 45% in the series with HepG2 [9]. Moreover, the results for the Activity in the series with Mus musculus [12] and in the series with Mus musculus [13] were 17% and 40%, respectively. Also, the “fold change (FC)” value in the series on Mus musculus [14] is recorded as 6.9; in the series with Mus musculus [15], 1.9.

As to `FC(F)(F)c1cccc2c(-c3ccccc3)n(Cc3ccccc3)nc12`, the half-life in [17] was 1.9 h; in [20], 2.2 h. The same compound returned a clearance in [18] of 81 mL/min/kg. In series [19], the Vd was 5.2 L/kg. Besides, in series [21], the time to peak (Tmax) stood at 0.25 h. The compound also came in with an area under the curve AUC(0-inf) in series [22] of 321 ng·h/mL. Further, the peak level in series [23] (Cmax) was 124 ng/mL. Further, in series [24], the bioavailability worked out at 16%.

`O=C(O)Cc1ccc(COc2cccc(-c3c(Cc4ccccc4)cnc4c(C(F)(F)F)cccc34)c2)cc1`: the Efficacy in the series with THP-1 [4] is 155%; in the series with THP-1 [6], 88%; in the series on HepG2 [8] it was 96%; in the series with HepG2 [9], 85%. In addition, the EC50 came to 6 nM in the series on THP-1 [5], 120 nM with HepG2 [7] and 223 nM with HepG2 [11]. In addition, the Activity with Mus musculus [12] is given as 20%; with Mus musculus [13], 38%; in the series on Syrian golden hamster [25] it was 25%. Also, the “fold change (FC)” value in the series with Syrian golden hamster [26] is given as 4.

The record behind these values is ChEMBL document CHEMBL1152299, “Indazole-based liver X receptor (LXR) modulators with maintained atherosclerotic lesion reduction activity but diminished stimulation of hepatic triglyceride synthesis” (J Med Chem, 2008).
